# Values joined by “and” are separate entries in the source; they are usually repeats but may differ in a detail not shown here. Identical values can stand only once.
# Key:
# [1] = system: DPP4; set-up: method as in Martin et al. 2023 (15); settings: ref Martin et al. 2023 (15); cited from earlier work
# [2] = system: PC3-mice; assay: Biodistribution in PC3-mice incl. blocking; format: in vivo, mouse
# Procedure: Male athymic Balb/C nude mice (6 weeks/20–25 g) were implanted with PC3 cells (3.5 × 10^6/100 µL PBS) into their right shoulder to develop tumors. The animals were used for biodistribution and PET/SPECT/CT imaging studies, once tumors reached 250–300 mm^3.
# All mice were euthanized with intraperitoneal injection of pentobarbital (150 mg/kg), and selected organs were dissected, weighed, and measured for radioactivity using a gamma-counter. Results are expressed as % injected activity per gram tissue (% I.A./g), presented as mean ± SD (n = 3–4).
# [3] = system: FAP; set-up: method as in Martin et al. 2023 (15); settings: enzymatic assay; ref Martin et al. 2023 (15); cited from earlier work
# [4] = system: DPP9; set-up: method as in Martin et al. 2023 (15); settings: ref Martin et al. 2023 (15); cited from earlier work
# [5] = system: DPP8; set-up: method as in Martin et al. 2023 (15); settings: ref Martin et al. 2023 (15); cited from earlier work
# [6] = system: PREP; set-up: method as in Martin et al. 2023 (15); settings: ref Martin et al. 2023 (15); cited from earlier work
# [7] = biological target: T1, FAP (Homo sapiens, UniProt Q12884); assay: Saturation binding on FAP+ CAFs; settings: listed as 68/natGa-DOTAGA.Glu.(FAPI)2
# T1 construct: the CAF cells overexpressing FAP were seeded at a density of 0.8-1 million cells per well; host or cells: hTERT PF179T prostate cancer-associated fibroblasts
# T1 sequence (Q12884 1-760): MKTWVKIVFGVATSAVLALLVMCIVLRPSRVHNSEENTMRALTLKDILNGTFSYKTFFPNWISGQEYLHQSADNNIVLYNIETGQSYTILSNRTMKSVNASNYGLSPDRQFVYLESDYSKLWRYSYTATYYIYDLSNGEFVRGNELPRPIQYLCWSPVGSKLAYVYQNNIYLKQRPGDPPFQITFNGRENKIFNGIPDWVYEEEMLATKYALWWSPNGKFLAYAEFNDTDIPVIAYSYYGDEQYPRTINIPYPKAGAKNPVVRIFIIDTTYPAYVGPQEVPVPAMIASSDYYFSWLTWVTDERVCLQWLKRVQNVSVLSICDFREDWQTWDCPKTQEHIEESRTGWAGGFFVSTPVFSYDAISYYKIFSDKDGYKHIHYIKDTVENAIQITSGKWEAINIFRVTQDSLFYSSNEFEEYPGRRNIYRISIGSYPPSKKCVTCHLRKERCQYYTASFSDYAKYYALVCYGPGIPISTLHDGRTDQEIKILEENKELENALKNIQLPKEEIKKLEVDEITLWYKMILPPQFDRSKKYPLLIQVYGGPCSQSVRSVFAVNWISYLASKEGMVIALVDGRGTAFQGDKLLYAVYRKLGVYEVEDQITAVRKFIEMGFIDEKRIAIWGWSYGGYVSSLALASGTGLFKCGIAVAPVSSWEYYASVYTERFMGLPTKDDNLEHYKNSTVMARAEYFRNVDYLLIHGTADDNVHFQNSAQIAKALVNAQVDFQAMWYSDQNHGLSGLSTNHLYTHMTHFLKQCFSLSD
# Procedure: For receptor saturation studies, FAP^+ CAFs were incubated with 0.1 to 10 nM of the radioligands. For internalization studies, approximately 2.5 pmol of the radioligands were added to CAFs followed by incubation for 15, 30, 60, 90, 120, 180 and 240 min for the ^68Ga-labeled or 30, 60, 120, 240 and 360 min for the ^177Lu-labeled radioligands at 37 °C, 5% CO2. For the externalization studies, approximately 2.5 pmol of the ^177Lu-labeled radioligands were added to CAFs followed by incubation for 2 h at 37 °C, 5% CO2. The amount of externalized activity was measured at 0, 10, 20, 30, 60, 120, 240, and 1440 min (Supplemental Data).
# For receptor saturation analysis, the CAF cells overexpressing FAP were seeded at a density of 0.8-1 million cells per well in 6-well plates, pre-coated with BME (Cultrex Reduced Growth Factor Basement Membrane Extract, RGF BME, R&D System, Minneapolis, USA) to enhance cell attachment. The cells were incubated overnight with medium (EMEM supplemented and containing 10% FBS, 100 U/mL penicillin and 100 μg/mL streptomycin). The next day, the medium was removed and the cells were incubated for 30 minutes at 37 °C, with 0.8 mL of fresh medium. Afterwards, the plates were placed on ice for 30 minutes followed by incubation with increasing concentrations of ^68/natGa- and ^177/natLu-labelled DOTAGA.Glu.(FAPI)2 and DO3A.Glu.( FAPI)2 (0.1-10 nM final concentration in the wells). After the addition of the radioligands, the cells were incubated for 120 minutes at 4 °C. Non-specific binding was determined in the presence of UAMC1110 at a final concentration of 1 μM. After the completion of the incubation, the cells were washed twice with ice-cold PBS, followed by solubilization with 1 M NaOH. The cell-associated radioactivity was measured using a gamma-counter. Specific binding was plotted against the total molar concentration of the added radiotracer. The Kd values and the concentration of the radioligand required to saturate the receptors (Bmax) were determined by nonlinear regression using GraphPad (Prism 8 Graph Pad Software, San Diego, CA). For all the cell studies the values are normalized for 1x10^6 cells per well and all data are from two independent experiments with triplicates in each experiment.
# [8] = PC3-model, labeled with gallium-68
# [9] = PC3-model, labeled with lutetium-177
# [10] = PC3-mice, Blocking 1h (20 nmol unlabeled precursor)
structure (smiles),measurement,setting,value
N#C[C@@H]1CC(F)(F)CN1C(=O)CNC(=O)c1ccnc2ccc(OCCCCNC(=O)CC[C@H](NC(=O)CN3CCN(CC(=O)O)CCN(CC(=O)O)CCN(CC(=O)O)CC3)C(=O)NCCCCOc3ccc4nccc(C(=O)NCC(=O)N5CC(F)(F)C[C@H]5C#N)c4c3)cc12 [DO3A.Glu.(FAPI)2],IC50,[1],540 ± 60 nM
same,tumor uptake,[2]; [8],~ 20%
same,tumor uptake,[2]; [9],~ 16%
same,IC50,[3],0.6 ± 0.04 nM
same,IC50,[4],950 ± 110 nM
same,IC50,[5],1030 ± 180 nM
same,IC50,[6],1000 ± 140 nM
N#C[C@@H]1CC(F)(F)CN1C(=O)CNC(=O)c1ccnc2ccc(OCCCCNC(=O)CC[C@H](NC(=O)CCC(C(=O)O)N3CCN(CC(=O)O)CCN(CC(=O)O)CCN(CC(=O)O)CC3)C(=O)NCCCCOc3ccc4nccc(C(=O)NCC(=O)N5CC(F)(F)C[C@H]5C#N)c4c3)cc12 (stereo partly drawn) [DOTAGA.Glu.(FAPI)2],IC50,[1],1190 ± 80 nM
same,tumor uptake,[2]; [8],~ 20%
same,tumor uptake,[2]; [9],~ 16%
same,IC50,[3],0.26 ± 0.04 nM
same,IC50,[4],83 ± 1.5 nM
same,IC50,[5],29 ± 4 nM
same,IC50,[6],590 ± 100 nM
"N#C[C@@H]1CC(F)(F)CN1C(=O)CNC(=O)c1ccnc2ccccc12 [UAMC-1110, reference compound]",IC50,[3],0.43 ± 0.02 nM
same,IC50,[5],> 10000 nM
N#C[C@@H]1CC(F)(F)CN1C(=O)CNC(=O)c1ccnc2ccc(OCCCCNC(=O)CC[C@H](NC(=O)CCC(C(=O)O)N3CCN(CC(=O)[O-])CCN(CC(=O)[O-])CCN(CC(=O)[O-])CC3)C(=O)NCCCCOc3ccc4nccc(C(=O)NCC(=O)N5CC(F)(F)C[C@H]5C#N)c4c3)cc12.[68Ga+3] (stereo partly drawn) [[^68Ga]Ga-DOTAGA.Glu.(FAPI)2],Kd,[7]; 0.1 to 10 nM radioligand,0.8 nM and 0.77 nM
same,Bmax,[7],0.7 ± 0.04 nM and 0.67 ± 0.04 nM
same,Uptake in Adrenal,"[2]; PC3-mice, 1 h p.i.",3.6±0.6 %I.A./g
same,Uptake in Blood,"[2]; PC3-mice, 1 h p.i.",3.5 ± 0.2 %I.A./g
same,Uptake in Bone,"[2]; PC3-mice, 1 h p.i.",4.9±0.8 %I.A./g
same,Uptake in Gallbladder,"[2]; PC3-mice, 1 h p.i.",3.2±0.6 %I.A./g
same,Uptake in Heart,"[2]; PC3-mice, 1 h p.i.",1.6±0.2 %I.A./g
same,Uptake in Intestine,"[2]; PC3-mice, 1 h p.i.",1.4±0.2 %I.A./g
same,Uptake in Kidney,"[2]; PC3-mice, 1 h p.i.",8.3±0.7 %I.A./g
same,Uptake in Liver,"[2]; PC3-mice, 1 h p.i.",3±0.4 %I.A./g
same,Uptake in Lung,"[2]; PC3-mice, 1 h p.i.",3.7±0.6 %I.A./g
same,Uptake in Muscle,"[2]; PC3-mice, 1 h p.i.",1.9±0.2 %I.A./g
same,Uptake in Pancreas,"[2]; PC3-mice, 1 h p.i.",2.5±0.2 %I.A./g
same,Uptake in Salivary glands,"[2]; PC3-mice, 1 h p.i.",8.2±0.5 %I.A./g
same,Uptake in Spleen,"[2]; PC3-mice, 1 h p.i.",1.6±0.01 %I.A./g
same,Uptake in Stomach,"[2]; PC3-mice, 1 h p.i.",1.3±0.2 %I.A./g
same,Uptake in Tumor,"[2]; PC3-mice, 1 h p.i.",18.2 ± 2.3 %I.A./g and 18.2±3.8 %I.A./g
same,Uptake in Adrenal,"[2]; PC3-mice, 2 h p.i.",4.2±0.2 %I.A./g
same,Uptake in Blood,"[2]; PC3-mice, 2 h p.i.",2.6±0.1 %I.A./g
same,Uptake in Bone,"[2]; PC3-mice, 2 h p.i.",6.4±1.2 %I.A./g
same,Uptake in Gallbladder,"[2]; PC3-mice, 2 h p.i.",2.3±0.4 %I.A./g
same,Uptake in Heart,"[2]; PC3-mice, 2 h p.i.",1±0.01 %I.A./g
same,Uptake in Intestine,"[2]; PC3-mice, 2 h p.i.",1±0.03 %I.A./g
same,Uptake in Kidney,"[2]; PC3-mice, 2 h p.i.",4.8±0.5 %I.A./g
same,Uptake in Liver,"[2]; PC3-mice, 2 h p.i.",1.4±0.04 %I.A./g
same,Uptake in Lung,"[2]; PC3-mice, 2 h p.i.",1.7±0.2 %I.A./g
same,Uptake in Muscle,"[2]; PC3-mice, 2 h p.i.",1.7±0.3 %I.A./g
same,Uptake in Pancreas,"[2]; PC3-mice, 2 h p.i.",2.3±0.1 %I.A./g
same,Uptake in Salivary glands,"[2]; PC3-mice, 2 h p.i.",6.5±1.1 %I.A./g
same,Uptake in Spleen,"[2]; PC3-mice, 2 h p.i.",1±0.1 %I.A./g
same,Uptake in Stomach,"[2]; PC3-mice, 2 h p.i.",0.9±0.04 %I.A./g
same,Uptake in Tumor,"[2]; PC3-mice, 2 h p.i.",17.8 ± 0.5 %I.A./g
same,Uptake in Adrenal,"[2]; PC3-mice, 3 h p.i.",3.9±2 %I.A./g
same,Uptake in Blood,"[2]; PC3-mice, 3 h p.i.",2.5 ± 0.1 %I.A./g
same,Uptake in Bone,"[2]; PC3-mice, 3 h p.i.",6.7±0.1 %I.A./g
same,Uptake in Gallbladder,"[2]; PC3-mice, 3 h p.i.",2.6±1.1 %I.A./g
same,Uptake in Heart,"[2]; PC3-mice, 3 h p.i.",1±0.2 %I.A./g
same,Uptake in Intestine,"[2]; PC3-mice, 3 h p.i.",1.1±0.1 %I.A./g
same,Uptake in Kidney,"[2]; PC3-mice, 3 h p.i.",4.4±0.4 %I.A./g
same,Uptake in Liver,"[2]; PC3-mice, 3 h p.i.",1.6±0.2 %I.A./g
same,Uptake in Lung,"[2]; PC3-mice, 3 h p.i.",1.4±0.1 %I.A./g
same,Uptake in Muscle,"[2]; PC3-mice, 3 h p.i.",1.6±0.2 %I.A./g
same,Uptake in Pancreas,"[2]; PC3-mice, 3 h p.i.",2±0.1 %I.A./g
same,Uptake in Salivary glands,"[2]; PC3-mice, 3 h p.i.",6±0.1 %I.A./g
same,Uptake in Spleen,"[2]; PC3-mice, 3 h p.i.",1.1±0.2 %I.A./g
same,Uptake in Stomach,"[2]; PC3-mice, 3 h p.i.",1±0.1 %I.A./g
same,Uptake in Tumor,"[2]; PC3-mice, 3 h p.i.",18.4 ± 2.2 %I.A./g and 18.4±2.1 %I.A./g
same,Uptake in Adrenal,[2]; [10],0.7±0.1 %I.A./g
same,Uptake in Blood,[2]; [10],1.7±0.5 %I.A./g
same,Uptake in Bone,[2]; [10],0.3±0.2 %I.A./g
same,Uptake in Gallbladder,[2]; [10],5.5±0.6 %I.A./g
same,Uptake in Heart,[2]; [10],0.6±0.1 %I.A./g
same,Uptake in Intestine,[2]; [10],0.6±0.3 %I.A./g
same,Uptake in Kidney,[2]; [10],5.6±1.8 %I.A./g
same,Uptake in Liver,[2]; [10],0.6±0.2 %I.A./g
same,Uptake in Lung,[2]; [10],1.3±0.5 %I.A./g
same,Uptake in Muscle,[2]; [10],0.2±0.1 %I.A./g
same,Uptake in Pancreas,[2]; [10],0.3±0.1 %I.A./g
same,Uptake in Salivary glands,[2]; [10],0.7±0.1 %I.A./g
same,Uptake in Spleen,[2]; [10],0.5±0.1 %I.A./g
same,Uptake in Stomach,[2]; [10],0.5±0.1 %I.A./g
same,Uptake in Tumor,[2]; [10],1.4±0.5 %I.A./g
same,tumor uptake,"[2]; PC3-mice, sustained up to 3 h p.i.",18–19 %I.A./g
N#C[C@@H]1CC(F)(F)CN1C(=O)CNC(=O)c1ccnc2ccc(OCCCCNC(=O)CC[C@H](NC(=O)CCC(C(=O)O)N3CCN(CC(=O)[O-])CCN(CC(=O)[O-])CCN(CC(=O)[O-])CC3)C(=O)NCCCCOc3ccc4nccc(C(=O)NCC(=O)N5CC(F)(F)C[C@H]5C#N)c4c3)cc12.[Lu+3] (stereo partly drawn) [[^natLu]Lu-DOTAGA.Glu.(FAPi)2],IC50,[1],650 ± 40 nM
same,IC50,[3],0.33 ± 0.02 nM
same,IC50,[4],190 ± 10 nM
same,IC50,[5],220 ± 20 nM
same,IC50,[6],430 ± 160 nM

# — paper PMC12860872, “Preclinical evaluation of DOTAGA.Glu.(FAPI)2 and DO3A.Glu.(FAPI)2 as theranostics with human dosimetry extrapolation to lutetium-177 and terbium-161 analogs” (European Journal of Nuclear Medicine and Molecular Imaging, 2025)
